Test results taken from ChEMBL document CHEMBL5444388, “Affinity Phenotypic Cellular Literature for EUbOPEN Chemogenomic Library” (2024).

Key:
Format in all cases: functional, cell-based
Set-up in all cases: recommended concentration 100 nM
[1] = target: Centromere-associated protein E (Homo sapiens) (UniProt Q02224); assay: Affinity Phenotypic Cellular interaction: (Cell-growth inhibition assays (growth inhibitory effect colon cancer cell line CRO-AP2)) EUB0000734a CENPE; details: Affinity Phenotypic Cellular Source Knowledge https://pubmed.ncbi.nlm.nih.gov/20167803/
[2] = target: Centromere-associated protein E (Homo sapiens) (UniProt Q02224); assay: Affinity Phenotypic Cellular interaction: (Cell-growth inhibition assays (growth inhibitory effect colon cancer cell line BV-173)) EUB0000734a CENPE; details: Affinity Phenotypic Cellular Source Knowledge https://pubmed.ncbi.nlm.nih.gov/20167803/
[3] = target: Centromere-associated protein E (Homo sapiens) (UniProt Q02224); assay: Affinity Phenotypic Cellular interaction: (Cell-growth inhibition assays (growth inhibitory effect sarcoma cancer cell line TE381.T)) EUB0000734a CENPE; details: TE 381.T, Affinity Phenotypic Cellular Source Knowledge https://pubmed.ncbi.nlm.nih.gov/20167803/
[4] = target: Centromere-associated protein E (Homo sapiens) (UniProt Q02224); assay: Affinity Phenotypic Cellular interaction: (Cell-growth inhibition assays (growth inhibitory effect colon cancer cell line 22Rv1)) EUB0000734a CENPE; details: CWR22R, Affinity Phenotypic Cellular Source Knowledge https://pubmed.ncbi.nlm.nih.gov/20167803/
[5] = target: Centromere-associated protein E (Homo sapiens) (UniProt Q02224); assay: Affinity Phenotypic Cellular interaction: (Cell-growth inhibition assays (growth inhibitory effect colon cancer cell line MDA-MB-435)) EUB0000734a CENPE; details: Affinity Phenotypic Cellular Source Knowledge https://pubmed.ncbi.nlm.nih.gov/20167803/
[6] = target: Centromere-associated protein E (Homo sapiens) (UniProt Q02224); assay: Affinity Phenotypic Cellular interaction: (Cell-growth inhibition assays (growth inhibitory effect colon cancer cell line SNU-449)) EUB0000734a CENPE; details: Affinity Phenotypic Cellular Source Knowledge https://pubmed.ncbi.nlm.nih.gov/20167803/
[7] = target: Centromere-associated protein E (Homo sapiens) (UniProt Q02224); assay: Affinity Phenotypic Cellular interaction: (Cell-growth inhibition assays (growth inhibitory effect colon cancer cell line SNB-75)) EUB0000734a CENPE; details: Affinity Phenotypic Cellular Source Knowledge https://pubmed.ncbi.nlm.nih.gov/20167803/
[8] = target: Centromere-associated protein E (Homo sapiens) (UniProt Q02224); assay: Affinity Phenotypic Cellular interaction: (Cell-growth inhibition assays (growth inhibitory effect colon cancer cell line HT-29)) EUB0000734a CENPE; details: Affinity Phenotypic Cellular Source Knowledge https://pubmed.ncbi.nlm.nih.gov/20167803/
[9] = target: Centromere-associated protein E (Homo sapiens) (UniProt Q02224); assay: Affinity Phenotypic Cellular interaction: (Cell-growth inhibition assays (growth inhibitory effect colon cancer cell line EKVX)) EUB0000734a CENPE; details: Affinity Phenotypic Cellular Source Knowledge https://pubmed.ncbi.nlm.nih.gov/20167803/
[10] = target: Centromere-associated protein E (Homo sapiens) (UniProt Q02224); assay: Affinity Phenotypic Cellular interaction: (Cell-growth inhibition assays (growth inhibitory effect colon cancer cell line C-4I)) EUB0000734a CENPE; details: Affinity Phenotypic Cellular Source Knowledge https://pubmed.ncbi.nlm.nih.gov/20167803/
[11] = target: Centromere-associated protein E (Homo sapiens) (UniProt Q02224); assay: Affinity Phenotypic Cellular interaction: (Cell-growth inhibition assays (growth inhibitory effect colon cancer cell line DB)) EUB0000734a CENPE; details: Affinity Phenotypic Cellular Source Knowledge https://pubmed.ncbi.nlm.nih.gov/20167803/
[12] = target: Centromere-associated protein E (Homo sapiens) (UniProt Q02224); assay: Affinity Phenotypic Cellular interaction: (Cell-growth inhibition assays (growth inhibitory effect colon cancer cell line OVCAR-3)) EUB0000734a CENPE; details: Affinity Phenotypic Cellular Source Knowledge https://pubmed.ncbi.nlm.nih.gov/20167803/
[13] = target: Centromere-associated protein E (Homo sapiens) (UniProt Q02224); assay: Affinity Phenotypic Cellular interaction: (Cell-growth inhibition assays (growth inhibitory effect colon cancer cell line A673)) EUB0000734a CENPE; details: Affinity Phenotypic Cellular Source Knowledge https://pubmed.ncbi.nlm.nih.gov/20167803/
[14] = target: Centromere-associated protein E (Homo sapiens) (UniProt Q02224); assay: Affinity Phenotypic Cellular interaction: (Cell-growth inhibition assays (growth inhibitory effect colon cancer cell line PC-3)) EUB0000734a CENPE; details: Affinity Phenotypic Cellular Source Knowledge https://pubmed.ncbi.nlm.nih.gov/20167803/
[15] = target: Centromere-associated protein E (Homo sapiens) (UniProt Q02224); assay: Affinity Phenotypic Cellular interaction: (Cell-growth inhibition assays (growth inhibitory effect colon cancer cell line SW756)) EUB0000734a CENPE; details: Affinity Phenotypic Cellular Source Knowledge https://pubmed.ncbi.nlm.nih.gov/20167803/
[16] = target: Centromere-associated protein E (Homo sapiens) (UniProt Q02224); assay: Affinity Phenotypic Cellular interaction: (Cell-growth inhibition assays (growth inhibitory effect colon cancer cell line SNU-475)) EUB0000734a CENPE; details: Affinity Phenotypic Cellular Source Knowledge https://pubmed.ncbi.nlm.nih.gov/20167803/
[17] = target: Centromere-associated protein E (Homo sapiens) (UniProt Q02224); assay: Affinity Phenotypic Cellular interaction: (Cell-growth inhibition assays (growth inhibitory effect colon cancer cell line DLD-1)) EUB0000734a CENPE; details: Affinity Phenotypic Cellular Source Knowledge https://pubmed.ncbi.nlm.nih.gov/20167803/
[18] = target: Centromere-associated protein E (Homo sapiens) (UniProt Q02224); assay: Affinity Phenotypic Cellular interaction: (Cell-growth inhibition assays (growth inhibitory effect colon cancer cell line HEC-1-A)) EUB0000734a CENPE; details: Affinity Phenotypic Cellular Source Knowledge https://pubmed.ncbi.nlm.nih.gov/20167803/
[19] = target: Centromere-associated protein E (Homo sapiens) (UniProt Q02224); assay: Affinity Phenotypic Cellular interaction: (Cell-growth inhibition assays (growth inhibitory effect colon cancer cell line MOLT-16)) EUB0000734a CENPE; details: Affinity Phenotypic Cellular Source Knowledge https://pubmed.ncbi.nlm.nih.gov/20167803/
[20] = target: Centromere-associated protein E (Homo sapiens) (UniProt Q02224); assay: Affinity Phenotypic Cellular interaction: (Cell-growth inhibition assays (growth inhibitory effect colon cancer cell line TK-10)) EUB0000734a CENPE; details: Affinity Phenotypic Cellular Source Knowledge https://pubmed.ncbi.nlm.nih.gov/20167803/
[21] = target: Centromere-associated protein E (Homo sapiens) (UniProt Q02224); assay: Affinity Phenotypic Cellular interaction: (Cell-growth inhibition assays (growth inhibitory effect colon cancer cell line HT-3)) EUB0000734a CENPE; details: Affinity Phenotypic Cellular Source Knowledge https://pubmed.ncbi.nlm.nih.gov/20167803/
[22] = target: Centromere-associated protein E (Homo sapiens) (UniProt Q02224); assay: Affinity Phenotypic Cellular interaction: (Cell-growth inhibition assays (growth inhibitory effect colon cancer cell line A549)) EUB0000734a CENPE; details: Affinity Phenotypic Cellular Source Knowledge https://pubmed.ncbi.nlm.nih.gov/20167803/
[23] = target: Centromere-associated protein E (Homo sapiens) (UniProt Q02224); assay: Affinity Phenotypic Cellular interaction: (Cell-growth inhibition assays (growth inhibitory effect colon cancer cell line RL)) EUB0000734a CENPE; details: Affinity Phenotypic Cellular Source Knowledge https://pubmed.ncbi.nlm.nih.gov/20167803/
[24] = target: Centromere-associated protein E (Homo sapiens) (UniProt Q02224); assay: Affinity Phenotypic Cellular interaction: (Cell-growth inhibition assays (growth inhibitory effect colon cancer cell line HN5)) EUB0000734a CENPE; details: Affinity Phenotypic Cellular Source Knowledge https://pubmed.ncbi.nlm.nih.gov/20167803/
[25] = target: Centromere-associated protein E (Homo sapiens) (UniProt Q02224); assay: Affinity Phenotypic Cellular interaction: (Cell-growth inhibition assays (growth inhibitory effect colon cancer cell line HCT-15)) EUB0000734a CENPE; details: Affinity Phenotypic Cellular Source Knowledge https://pubmed.ncbi.nlm.nih.gov/20167803/
[26] = target: Centromere-associated protein E (Homo sapiens) (UniProt Q02224); assay: Affinity Phenotypic Cellular interaction: (Cell-growth inhibition assays (growth inhibitory effect colon cancer cell line HOP-62)) EUB0000734a CENPE; details: Affinity Phenotypic Cellular Source Knowledge https://pubmed.ncbi.nlm.nih.gov/20167803/
[27] = target: Centromere-associated protein E (Homo sapiens) (UniProt Q02224); assay: Affinity Phenotypic Cellular interaction: (Cell-growth inhibition assays (growth inhibitory effect colon cancer cell line H4)) EUB0000734a CENPE; details: Affinity Phenotypic Cellular Source Knowledge https://pubmed.ncbi.nlm.nih.gov/20167803/
[28] = target: Centromere-associated protein E (Homo sapiens) (UniProt Q02224); assay: Affinity Phenotypic Cellular interaction: (Cell-growth inhibition assays (growth inhibitory effect colon cancer cell line SW1417)) EUB0000734a CENPE; details: Affinity Phenotypic Cellular Source Knowledge https://pubmed.ncbi.nlm.nih.gov/20167803/
[29] = target: Centromere-associated protein E (Homo sapiens) (UniProt Q02224); assay: Affinity Phenotypic Cellular interaction: (Cell-growth inhibition assays (growth inhibitory effect colon cancer cell line HCC1954)) EUB0000734a CENPE; details: Affinity Phenotypic Cellular Source Knowledge https://pubmed.ncbi.nlm.nih.gov/20167803/
[30] = target: Centromere-associated protein E (Homo sapiens) (UniProt Q02224); assay: Affinity Phenotypic Cellular interaction: (Cell-growth inhibition assays (growth inhibitory effect colon cancer cell line RPMI6666)) EUB0000734a CENPE; details: RPMI-6666, Affinity Phenotypic Cellular Source Knowledge https://pubmed.ncbi.nlm.nih.gov/20167803/
[31] = target: Centromere-associated protein E (Homo sapiens) (UniProt Q02224); assay: Affinity Phenotypic Cellular interaction: (Cell-growth inhibition assays (growth inhibitory effect thyroid cancer cell line SW579)) EUB0000734a CENPE; details: Affinity Phenotypic Cellular Source Knowledge https://pubmed.ncbi.nlm.nih.gov/20167803/
[32] = target: Centromere-associated protein E (Homo sapiens) (UniProt Q02224); assay: Affinity Phenotypic Cellular interaction: (Cell-growth inhibition assays (growth inhibitory effect colon cancer cell line SHP-77)) EUB0000734a CENPE; details: SHP77, Affinity Phenotypic Cellular Source Knowledge https://pubmed.ncbi.nlm.nih.gov/20167803/
[33] = target: Centromere-associated protein E (Homo sapiens) (UniProt Q02224); assay: Affinity Phenotypic Cellular interaction: (Cell-growth inhibition assays (growth inhibitory effect colon cancer cell line SNU-398)) EUB0000734a CENPE; details: Affinity Phenotypic Cellular Source Knowledge https://pubmed.ncbi.nlm.nih.gov/20167803/
[34] = target: Centromere-associated protein E (Homo sapiens) (UniProt Q02224); assay: Affinity Phenotypic Cellular interaction: (Cell-growth inhibition assays (growth inhibitory effect colon cancer cell line HCC1143)) EUB0000734a CENPE; details: Affinity Phenotypic Cellular Source Knowledge https://pubmed.ncbi.nlm.nih.gov/20167803/
[35] = target: Centromere-associated protein E (Homo sapiens) (UniProt Q02224); assay: Affinity Phenotypic Cellular interaction: (Cell-growth inhibition assays (growth inhibitory effect colon cancer cell line Raji)) EUB0000734a CENPE; details: Affinity Phenotypic Cellular Source Knowledge https://pubmed.ncbi.nlm.nih.gov/20167803/
[36] = target: Centromere-associated protein E (Homo sapiens) (UniProt Q02224); assay: Affinity Phenotypic Cellular interaction: (Cell-growth inhibition assays (growth inhibitory effect colon cancer cell line UACC-257)) EUB0000734a CENPE; details: Affinity Phenotypic Cellular Source Knowledge https://pubmed.ncbi.nlm.nih.gov/20167803/
[37] = target: Centromere-associated protein E (Homo sapiens) (UniProt Q02224); assay: Affinity Phenotypic Cellular interaction: (Cell-growth inhibition assays (growth inhibitory effect colon cancer cell line CESS)) EUB0000734a CENPE; details: Affinity Phenotypic Cellular Source Knowledge https://pubmed.ncbi.nlm.nih.gov/20167803/
[38] = target: Centromere-associated protein E (Homo sapiens) (UniProt Q02224); assay: Affinity Phenotypic Cellular interaction: (Cell-growth inhibition assays (growth inhibitory effect colon cancer cell line A2780)) EUB0000734a CENPE; details: Affinity Phenotypic Cellular Source Knowledge https://pubmed.ncbi.nlm.nih.gov/20167803/
[39] = target: Centromere-associated protein E (Homo sapiens) (UniProt Q02224); assay: Affinity Phenotypic Cellular interaction: (Cell-growth inhibition assays (growth inhibitory effect colon cancer cell line SW1088)) EUB0000734a CENPE; details: Affinity Phenotypic Cellular Source Knowledge https://pubmed.ncbi.nlm.nih.gov/20167803/

Chain of Centromere-associated protein E (Homo sapiens) (Q02224 whole entry): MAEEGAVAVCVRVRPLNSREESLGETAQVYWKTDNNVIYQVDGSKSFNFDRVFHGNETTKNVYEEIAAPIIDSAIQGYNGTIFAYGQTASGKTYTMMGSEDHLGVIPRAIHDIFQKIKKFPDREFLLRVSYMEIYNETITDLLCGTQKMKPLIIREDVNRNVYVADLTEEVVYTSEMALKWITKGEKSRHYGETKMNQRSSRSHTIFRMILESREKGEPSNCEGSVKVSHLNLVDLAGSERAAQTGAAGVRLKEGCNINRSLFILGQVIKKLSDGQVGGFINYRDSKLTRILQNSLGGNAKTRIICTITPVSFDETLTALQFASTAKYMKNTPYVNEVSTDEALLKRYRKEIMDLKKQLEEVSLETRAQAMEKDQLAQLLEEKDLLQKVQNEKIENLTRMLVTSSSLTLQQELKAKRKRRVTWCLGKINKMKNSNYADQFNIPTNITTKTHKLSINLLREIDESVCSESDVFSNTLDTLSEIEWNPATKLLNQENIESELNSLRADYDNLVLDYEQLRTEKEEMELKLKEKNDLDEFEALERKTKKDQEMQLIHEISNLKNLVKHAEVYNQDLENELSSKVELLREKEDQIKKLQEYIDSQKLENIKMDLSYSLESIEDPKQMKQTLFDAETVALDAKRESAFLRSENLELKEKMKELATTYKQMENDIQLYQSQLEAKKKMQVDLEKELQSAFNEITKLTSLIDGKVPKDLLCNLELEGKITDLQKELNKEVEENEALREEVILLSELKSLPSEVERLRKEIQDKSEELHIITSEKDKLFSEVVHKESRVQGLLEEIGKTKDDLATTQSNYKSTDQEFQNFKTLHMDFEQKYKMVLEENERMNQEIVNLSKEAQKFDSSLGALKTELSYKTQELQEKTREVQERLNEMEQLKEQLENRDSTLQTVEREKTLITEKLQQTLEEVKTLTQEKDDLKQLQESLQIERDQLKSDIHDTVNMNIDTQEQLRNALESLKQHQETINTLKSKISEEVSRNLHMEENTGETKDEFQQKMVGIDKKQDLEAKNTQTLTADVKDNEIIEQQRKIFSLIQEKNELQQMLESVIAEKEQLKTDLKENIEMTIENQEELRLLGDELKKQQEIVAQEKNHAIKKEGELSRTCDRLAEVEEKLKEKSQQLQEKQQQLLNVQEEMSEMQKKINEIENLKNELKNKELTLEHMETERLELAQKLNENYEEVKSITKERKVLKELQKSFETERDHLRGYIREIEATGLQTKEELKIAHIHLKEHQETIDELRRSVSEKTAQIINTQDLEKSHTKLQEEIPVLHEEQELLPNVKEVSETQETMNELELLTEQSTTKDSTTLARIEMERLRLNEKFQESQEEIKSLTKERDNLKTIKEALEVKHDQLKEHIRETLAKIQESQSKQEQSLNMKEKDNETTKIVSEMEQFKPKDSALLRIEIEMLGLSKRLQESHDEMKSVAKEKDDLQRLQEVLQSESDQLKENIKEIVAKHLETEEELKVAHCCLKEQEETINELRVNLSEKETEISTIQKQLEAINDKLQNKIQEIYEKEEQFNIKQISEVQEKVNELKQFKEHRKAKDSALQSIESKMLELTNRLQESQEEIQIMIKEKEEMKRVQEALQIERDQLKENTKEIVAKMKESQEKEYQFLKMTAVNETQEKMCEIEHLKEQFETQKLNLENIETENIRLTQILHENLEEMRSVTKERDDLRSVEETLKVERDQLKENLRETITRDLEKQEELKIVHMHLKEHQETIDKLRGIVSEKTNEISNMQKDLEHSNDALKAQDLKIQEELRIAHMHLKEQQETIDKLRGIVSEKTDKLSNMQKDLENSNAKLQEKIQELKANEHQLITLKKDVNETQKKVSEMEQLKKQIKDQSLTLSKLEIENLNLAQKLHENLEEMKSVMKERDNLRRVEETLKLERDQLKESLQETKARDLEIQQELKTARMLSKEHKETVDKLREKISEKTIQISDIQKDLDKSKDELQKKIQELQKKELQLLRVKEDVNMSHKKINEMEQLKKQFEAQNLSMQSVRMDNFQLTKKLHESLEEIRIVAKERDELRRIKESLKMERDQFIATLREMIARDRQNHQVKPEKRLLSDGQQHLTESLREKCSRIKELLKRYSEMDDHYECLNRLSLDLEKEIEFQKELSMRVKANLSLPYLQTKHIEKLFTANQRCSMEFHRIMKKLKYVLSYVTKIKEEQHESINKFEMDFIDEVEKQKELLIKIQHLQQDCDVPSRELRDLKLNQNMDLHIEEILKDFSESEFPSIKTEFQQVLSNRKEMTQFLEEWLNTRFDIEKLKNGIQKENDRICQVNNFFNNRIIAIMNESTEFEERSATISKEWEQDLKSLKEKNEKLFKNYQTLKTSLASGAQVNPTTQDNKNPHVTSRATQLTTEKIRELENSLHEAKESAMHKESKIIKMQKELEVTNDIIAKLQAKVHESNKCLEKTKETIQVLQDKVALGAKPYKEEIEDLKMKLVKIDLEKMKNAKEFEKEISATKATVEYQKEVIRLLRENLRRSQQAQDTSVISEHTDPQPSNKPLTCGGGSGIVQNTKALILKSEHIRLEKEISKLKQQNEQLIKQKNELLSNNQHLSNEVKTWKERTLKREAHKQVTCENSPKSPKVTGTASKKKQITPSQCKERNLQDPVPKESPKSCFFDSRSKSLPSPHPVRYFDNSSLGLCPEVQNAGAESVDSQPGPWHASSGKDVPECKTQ

Q: What does the source list for `CC(C)Oc1ccc(C(=O)N[C@H](CNC(=O)CN(C)C)Cc2ccc(-c3cn4cccc([C@H](C)O)c4n3)cc2)cc1Cl`?
A: GIC50 [1]: 51 nM; GIC50 [2]: 56 nM; GIC50 [3]: 27 nM; GIC50 [4]: 29 nM; GIC50 [5]: 30 nM; GIC50 [6]: 236 nM; GIC50 [7]: 26 nM; GIC50 [8]: 14 nM; GIC50 [9]: 28 nM; GIC50 [10]: 42 nM; GIC50 [11]: 21 nM; GIC50 [12]: 42 nM; GIC50 [13]: 23 nM; GIC50 [14]: 28 nM; GIC50 [15]: 35 nM; GIC50 [16]: 26 nM; GIC50 [17]: 60 nM; GIC50 [18]: 50 nM; GIC50 [19]: 47 nM; GIC50 [20]: 49 nM; GIC50 [21]: 10 µM; GIC50 [22]: 21 nM; GIC50 [23]: 37 nM; GIC50 [24]: 118 nM; GIC50 [25]: 151 nM; GIC50 [26]: 20 nM; GIC50 [27]: 31 nM; GIC50 [28]: 29 nM; GIC50 [29]: 18 nM; GIC50 [30]: 88 nM; GIC50 [31]: 26 nM; GIC50 [32]: 86 nM; GIC50 [33]: 27 nM; GIC50 [34]: 27 nM; GIC50 [35]: 41 nM; GIC50 [36]: 32 nM; GIC50 [37]: 19 nM; GIC50 [38]: 13 nM; GIC50 [39]: 32 nM
